Measurements taken from US9365558B2 (BRISTOL-MYERS SQUIBB COMPANY, priority 2013, dated 2016).

target: Human MGAT-2 (Homo sapiens (Human), UniProt Q3SYC2); experiment: MGAT LCMS Assay; format: biochemical; details: recombinant MGAT-2 membranes expressed in Sf9 cells; 100 μM 2-oleoylglycerol, 15 μM oleoyl-Coenzyme A; LC/MS of diolein; read-out: h-MGAT LCMS IC50
Experimental: Assay plates were run through a fully automated robotics system and shaken for 5 seconds every minute for a total 10 minutes. The reactions were then quenched with 120 μL of ice cold methanol containing 1 μg/mL 1,2-distearoyl-rac-glycerol as the internal standard. Plates were shaken for 2 minutes and spun down to remove protein precipitation. After the spin, samples were transferred to LC/MS compatible PCR plates. For LC/MS analysis, a ThermoFisher Surveyor pump, utilizing a Waters Symmetry C8, 50×2.1 mm column, was used for the chromatography of enzyme products. The buffer system consists of 0.1% formic acid in water with a mobile phase consisting 0.1% formic acid in methanol. The shallow gradient is 90-100% mobile phase in 0.2 min with a total run time of 2.3 min. The first 0.5 minutes of each injection was diverted to waste to eliminate the presence of Phosphate buffer in the enzymatic reaction. The column was run at 0.6 mL/min and a temperature of 65° C. Mass spectrometry analysis of the samples was performed on a ThermoFisher Quantum Triple quad utilizing APCI (+) as the mode of ionization. […] The ratio of Diolein to internal standard (Peak Area Ratio) is utilized to calculate IC50 values.

Human MGAT-2, sequence (Q3SYC2 whole entry): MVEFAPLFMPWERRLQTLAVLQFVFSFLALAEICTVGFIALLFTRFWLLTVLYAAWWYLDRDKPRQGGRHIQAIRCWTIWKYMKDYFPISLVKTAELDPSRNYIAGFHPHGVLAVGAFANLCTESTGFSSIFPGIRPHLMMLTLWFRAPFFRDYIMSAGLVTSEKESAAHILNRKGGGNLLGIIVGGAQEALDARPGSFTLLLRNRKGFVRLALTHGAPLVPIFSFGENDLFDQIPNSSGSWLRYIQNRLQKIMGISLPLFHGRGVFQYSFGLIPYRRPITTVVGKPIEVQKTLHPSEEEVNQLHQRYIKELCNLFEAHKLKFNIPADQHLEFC

Point of comparison: Cc1ccc(C2=C(C(=O)NS(=O)(=O)C3CC3)C(=O)N[C@@](c3ncc(CCCCCCC(F)(F)F)s3)(C(F)(F)F)C2)cc1 [Example 3], IC50 9 nM. Against it:
- CCS(=O)(=O)NC(=O)C1=C(c2ccc(C)cc2)C[C@](c2ccc(OCCCCCC(F)(F)F)cc2)(C(F)(F)F)NC1=O [Example 1, (S)—N-(Ethylsulfonyl)-2-oxo-4-(p-tolyl)-6-(4-((6,6,6-trifluorohexyl)oxy)phenyl)-6-(trifluoromethyl)-1,2,5,6-tetrahydropyridine-3-carboxamide] — 1.9-fold higher, 17 nM
- CCCCCCC#C[C@]1(C(F)(F)F)CC(c2ccc(C)cc2)=C(C(=O)NS(=O)(=O)C2CC2)C(=O)N1 [Example 2] — 2.2-fold higher, 20 nM
- CN(C)c1ccc(C2=C(C(=O)NS(=O)(=O)C3CC3)C(=O)N[C@@](c3ccc(OCCCCCC(F)(F)F)cc3)(C(F)(F)F)C2)cc1 [Example 4] — 1.9-fold higher, 17 nM
- CS(=O)(=O)NC(=O)C1=C(c2ccc(OC(F)F)cc2)C[C@](c2ccc(OCCCCCC(F)(F)F)cc2)(C(F)(F)F)NC1=O [Example 5] — 4.2-fold higher, 38 nM
- Cc1ccc(C2=C(C(=O)NS(=O)(=O)C3CC3)C(=O)N[C@@](c3ccc(OCCCCCC(F)(F)F)cc3F)(C(F)(F)F)C2)cc1 [Example 6] — 2.2-fold lower, 4 nM
- CCc1ccc(C2=C(C(=O)NS(C)(=O)=O)C(=O)N[C@@](c3ccc(OCCCC(F)(F)F)cc3)(C(F)(F)F)C2)s1 [Example 7] — within 1.5-fold, 12 nM
- CCS(=O)(=O)NC(=O)C1=C(c2ccc(OC(F)F)cc2)C[C@](c2ccc(OCCCCCC(F)(F)F)cc2)(C(F)(F)F)NC1=O [Example 8] — 3.7-fold higher, 33 nM
- Cc1ccc(C2=C(C(=O)NS(C)(=O)=O)C(=O)N[C@@](c3ccc(OCCCCCC(F)(F)F)cc3)(C(F)(F)F)C2)cc1 [Example 9] — 1.8-fold higher, 16 nM
- CCc1ccc(C2=C(C(=O)NS(=O)(=O)C3CC3)C(=O)N[C@@](c3ccc(OCCCCCC(F)(F)F)cc3)(C(F)(F)F)C2)s1 [Example 10] — 1.8-fold lower, 5 nM
- Cc1ccc(C2=C(C(=O)NS(=O)(=O)C3CC3)C(=O)N[C@@](c3ccc(OCCCCCC(F)(F)F)cc3)(C(F)(F)F)C2)cc1 [Example 11] — within 1.5-fold, 12 nM
- CCCCCCC#C[C@]1(C(F)(F)F)CC(c2ccc(OC(F)F)cc2)=C(C(=O)NS(C)(=O)=O)C(=O)N1 [Example 12] — 2.7-fold higher, 24 nM
- Cc1ccc(C2=C(C(=O)NS(C)(=O)=O)C(=O)N[C@@](c3ccc(OCCCC(F)(F)F)cc3)(C(F)(F)F)C2)cc1 [Example 13] — 1.5-fold lower, 6 nM
- CS(=O)(=O)NC(=O)C1=C(c2ccc(OC(F)F)cc2)C[C@](c2ccc(OCCCC(F)(F)F)cc2)(C(F)(F)F)NC1=O [Example 14] — 6-fold higher, 54 nM
- CCCCCCC#C[C@]1(C(F)(F)F)CC(c2ccc(C)cc2)=C(C(=O)NS(C)(=O)=O)C(=O)N1 [Example 15] — 2.2-fold lower, 4 nM
- Cc1ccc(C2=C(C(=O)NS(=O)(=O)C3CC3)C(=O)N[C@@](c3ccc(OCCCC(F)(F)F)cc3)(C(F)(F)F)C2)cc1 [Example 16] — 2-fold higher, 18 nM
- Cc1ccc(C2=C(C(=O)NS(C)(=O)=O)C(=O)N[C@@](c3ccc(OCc4ccccc4)cc3)(C(F)(F)F)C2)cc1 [Example 17] — 2.9-fold higher, 26 nM
- COc1ccc(C2=C(C(=O)NS(=O)(=O)C3CC3)C(=O)N[C@@](c3ccc(OCCCCCC(F)(F)F)cc3)(C(F)(F)F)C2)cn1 [Example 18] — 5.8-fold higher, 52 nM
- CCS(=O)(=O)NC(=O)C1=C(c2ccc(C)cc2)C[C@](c2ccc(OCCCC(F)(F)F)cc2)(C(F)(F)F)NC1=O [Example 19] — 1.9-fold higher, 17 nM
- CC(C)(C)c1ccc(C2=C(C(=O)NS(=O)(=O)C3CC3)C(=O)N[C@@](c3ccc(OCCCCCC(F)(F)F)cc3)(C(F)(F)F)C2)cc1 [Example 20] — 2.2-fold lower, 4 nM
- CC(C)(C)c1ccc(C2=C(C(=O)NS(C)(=O)=O)C(=O)N[C@@](c3ccc(OCCCCCC(F)(F)F)cc3)(C(F)(F)F)C2)cc1 [Example 21] — within 1.5-fold, 7 nM
- COc1ccc(C2=C(C(=O)NS(=O)(=O)C3CC3)C(=O)N[C@@](c3ccc(OCCCCCC(F)(F)F)cc3F)(C(F)(F)F)C2)cc1 [Example 22] — 3-fold lower, 3 nM
- O=C1N[C@@](c2ccc(OCCCCCC(F)(F)F)cc2)(C(F)(F)F)CC(c2ccc(CC3CC3)cc2)=C1C(=O)NS(=O)(=O)C1CC1 [Example 23] — 2.2-fold lower, 4 nM
- Cc1ccc(C2=C(C(=O)NS(C)(=O)=O)C(=O)N[C@](C)(CCC(C)C)C2)cc1 [Example 24] — 13-fold higher, 114 nM
- CN(C)c1ccc(C2=C(C(=O)NS(C)(=O)=O)C(=O)N[C@@](c3ccc(OCCCC(F)(F)F)cc3)(C(F)(F)F)C2)cc1 [Example 25] — 2.7-fold higher, 24 nM
- CC(C)(C)c1ccc(C2=C(C(=O)NS(C)(=O)=O)C(=O)N[C@@](c3ccc(OCCCC(F)(F)F)cc3)(C(F)(F)F)C2)cc1 [Example 26] — 2.1-fold higher, 19 nM
- COc1ccc(C2=C(C(=O)NS(=O)(=O)C3CC3)C(=O)N[C@@](c3ccc(OCCCC(F)(F)F)cc3)(C(F)(F)F)C2)cc1 [Example 27] — within 1.5-fold, 8 nM
- Cc1ccc(C2=C(C(=O)NS(=O)(=O)C(C)(C)C)C(=O)N[C@@](c3ccc(OCCCC(F)(F)F)cc3)(C(F)(F)F)C2)cc1 [Example 28] — 39-fold higher, 348 nM
- Cc1ccc(C2=C(C(=O)NS(=O)(=O)c3ccccc3)C(=O)N[C@@](c3ccc(OCCCC(F)(F)F)cc3)(C(F)(F)F)C2)cc1 [Example 29] — 9.3-fold higher, 84 nM
- Cc1ccc(C2=C(C(=O)NS(=O)(=O)C(F)(F)F)C(=O)N[C@@](c3ccc(OCCCC(F)(F)F)cc3)(C(F)(F)F)C2)cc1 [Example 30] — 1.8-fold lower, 5 nM
- Cc1ccc(C2=C(C(=O)NS(=O)(=O)N(C)C)C(=O)N[C@@](c3ccc(OCCCCCC(F)(F)F)cc3)(C(F)(F)F)C2)cc1 [Example 32] — 2.8-fold higher, 25 nM
- Cc1ccc(C2=C(C(=O)NS(=O)(=O)C3CC3)C(=O)N[C@@](C#CCCCCCC(F)(F)F)(C(F)(F)F)C2)cc1 [Example 33] — within 1.5-fold, 11 nM
- COc1ccc(C2=C(C(=O)NS(C)(=O)=O)C(=O)N[C@@](c3ccc(OCCCC(F)(F)F)cc3)(C(F)(F)F)C2)cc1 [Example 34] — 33-fold higher, 295 nM
- COc1ccc(C2=C(C(=O)NS(=O)(=O)N(C)C)C(=O)N[C@@](c3ccc(OCCCC(F)(F)F)cc3)(C(F)(F)F)C2)cc1 [Example 35] — 39-fold higher, 353 nM
- COc1ccc(C2=C(C(=O)NS(C)(=O)=O)C(=O)N[C@@](c3ccc(OCCCCCC(F)(F)F)cc3F)(C(F)(F)F)C2)cc1 [Example 36] — 5.8-fold higher, 52 nM
- O=C1N[C@@](c2ccc(OCCCCCC(F)(F)F)cc2)(C(F)(F)F)CC(c2ccc(OC(F)F)cc2)=C1C(=O)NS(=O)(=O)C1CC1 [Example 37] — 1.5-fold lower, 6 nM
- COc1ccc(C2=C(C(=O)NS(=O)(=O)C3CC3)C(=O)N[C@@](c3ccc(OCCCCCC(F)(F)F)cc3)(C(F)(F)F)C2)cc1 [Example 38] — 4.8-fold higher, 43 nM
- CN(C)S(=O)(=O)NC(=O)C1=C(c2ccc(OC(F)F)cc2)C[C@](c2ccc(OCCCCCC(F)(F)F)cc2)(C(F)(F)F)NC1=O [Example 39] — 2.6-fold higher, 23 nM
- CCCCCCCc1cnc([C@]2(C(F)(F)F)CC(c3ccc(C)cc3)=C(C(=O)NS(=O)(=O)C3CC3)C(=O)N2)s1 [Example 40] — 4.5-fold lower, 2 nM
- CCCCCCCc1cnc([C@@]2(C(F)(F)F)CC(c3ccc(C)cc3)=C(C(=O)NS(=O)(=O)C3CC3)C(=O)N2)s1 [Example 41] — 26-fold higher, 235 nM
- CC(C)n1ccc(C2=C(C(=O)NS(=O)(=O)C3CC3)C(=O)N[C@@](c3ccc(OCCCC(F)(F)F)cc3F)(C(F)(F)F)C2)n1 [Example 42] — within 1.5-fold, 8 nM
- CC(C)n1ccc(C2=C(C(=O)NS(C)(=O)=O)C(=O)N[C@@](c3ccc(OCCCC(F)(F)F)cc3F)(C(F)(F)F)C2)n1 [Example 43] — 2.2-fold higher, 20 nM
- CS(=O)(=O)NC(=O)C1=C(c2ccn(C3CCC3)n2)C[C@](c2ccc(OCCCC(F)(F)F)cc2F)(C(F)(F)F)NC1=O [Example 44] — within 1.5-fold, 7 nM
- O=C1N[C@@](c2ccc(OCCCC(F)(F)F)cc2F)(C(F)(F)F)CC(c2ccn(C3CCC3)n2)=C1C(=O)NS(=O)(=O)C1CC1 [Example 45] — 1.9-fold higher, 17 nM
- O=C1N[C@@](c2ccc(OCCCC(F)(F)F)cc2F)(C(F)(F)F)CC(c2ccn(C3CC3)n2)=C1C(=O)NS(=O)(=O)C1CC1 [Example 46] — 9-fold higher, 81 nM
- CS(=O)(=O)NC(=O)C1=C(c2ccn(C3CC3)n2)C[C@](c2ccc(OCCCC(F)(F)F)cc2F)(C(F)(F)F)NC1=O [Example 47] — 1.8-fold higher, 16 nM
- CCn1ccc(C2=C(C(=O)NS(=O)(=O)C3CC3)C(=O)N[C@@](c3ccc(OCCCC(F)(F)F)cc3F)(C(F)(F)F)C2)n1 [Example 48] — 5.2-fold higher, 47 nM
- CC(C)n1ccc(C2=C(C(=O)NS(=O)(=O)C3CC3)C(=O)N[C@@](c3ccc(CCCCC(F)(F)F)cc3F)(C(F)(F)F)C2)c1 [Example 51] — 3-fold lower, 3 nM
- O=C1N[C@@](c2ccc(CCCCC(F)(F)F)cc2F)(C(F)(F)F)CC(c2ccn(CC3CC3)n2)=C1C(=O)NS(=O)(=O)C1CC1 [Example 52] — within 1.5-fold, 10 nM
- CCn1ccc(C2=C(C(=O)NS(=O)(=O)C3CC3)C(=O)N[C@@](c3ccc(CCCCC(F)(F)F)cc3F)(C(F)(F)F)C2)n1 [Example 53] — 9.9-fold higher, 89 nM
- CC(C)Cn1ccc(C2=C(C(=O)NS(=O)(=O)C3CC3)C(=O)N[C@@](c3ccc(CCCCC(F)(F)F)cc3F)(C(F)(F)F)C2)n1 [Example 54] — 6.6-fold higher, 59 nM
- CC(C)Cn1ccc(C2=C(C(=O)NS(=O)(=O)C3CC3)C(=O)N[C@@](c3ccc(OCCCC(F)(F)F)cc3F)(C(F)(F)F)C2)n1 [Example 55] — 6.9-fold higher, 62 nM
- O=C1N[C@@](c2ccc(OCCCC(F)(F)F)cc2F)(C(F)(F)F)CC(c2ccn(CC3CC3)n2)=C1C(=O)NS(=O)(=O)C1CC1 [Example 56] — within 1.5-fold, 13 nM
- O=C1N[C@@](c2ccc(OCCCC(F)(F)F)cc2F)(C(F)(F)F)CC(c2ccn(CC3CCC3)n2)=C1C(=O)NS(=O)(=O)C1CC1 [Example 57] — 4.1-fold higher, 37 nM
